In US20140030712A1, “GENOMIC APPROACH TO THE IDENTIFICATION OF BIOMARKERS FOR ANTIBIOTIC RESISTANCE AND SUSCEPTIBILITY IN CLINICAL ISOLATES OF BACTERIAL PATHOGENS” (priority 2011, published 2014):
Values after ≈ are worked out from the molar mass of the structure shown. Where two headings read alike, the source gives them in different places.

Assays:
[1] = tested on: E. coli clinical isolates; assay: microbe, parasite or virus in culture; type: cell-based; settings: Escherichia coli
Procedure: Clinical isolate collection and antibiotic resistance determination. […] Hospital-derived qualitative antibiotic susceptibility status denoted each isolate as susceptible (S), intermediate resistant (I), or resistance (R) to the drugs listed in Table 1. Quantitative MICs for the fluoroquinolones ciprofloxacin (CIP), gatifloxacin (GAT), levofloxacin (LVX), and norfloxacin (NOR) were determined in our laboratory as described (LBB).

[2] = tested on: E. coli BW25113 K-12 strain; settings: deletion of any of three cryptic prophages (rac, e14, CP4-6); cited from earlier work
[3] = pool H01, n=2 isolates, MDR ≧5, read-out: Fluoroquinolone MIC
[4] = pool H02, n=5 isolates, MDR ≧3, read-out: Fluoroquinolone MIC
[5] = pool H03, n=5 isolates, MDR ≧3, read-out: Fluoroquinolone MIC
[6] = pool M01, n=10 isolates, MDR ≧3, read-out: Fluoroquinolone MIC
[7] = pool M02, n=10 isolates, MDR ≧5, read-out: Fluoroquinolone MIC
[8] = pool M03, n=13 isolates, no MDR, read-out: Fluoroquinolone MIC
[9] = pool M04, n=23 isolates, no MDR, read-out: Fluoroquinolone MIC
[10] = pool M05, n=16 isolates, MDR ≧5, read-out: Fluoroquinolone MIC
[11] = pool M06, n=13 isolates, MDR ≧3, read-out: Fluoroquinolone MIC
[12] = pool M07, n=33 isolates, MDR ≧3, read-out: Fluoroquinolone MIC
[13] = pool M08, n=3 isolates, No MDR, read-out: Fluoroquinolone MIC
[14] = pool M09, n=3 isolates, MDR ≧3, read-out: Fluoroquinolone MIC
[15] = pool M10, n=5 isolates, MDR ≧5, read-out: Fluoroquinolone MIC
[16] = pool M11, n=5 isolates, MDR ≧3, read-out: Fluoroquinolone MIC
[17] = pool S01, n=9 isolates, no MDR, read-out: Fluoroquinolone MIC
[18] = pool S02, n=9 isolates, no MDR, read-out: Fluoroquinolone MIC

SMILES | MIC [1, 3] | MIC [1, 4] | MIC [1, 5] | MIC [1, 6] | MIC [1, 7] | MIC [1, 8] | MIC [1, 9] | MIC [1, 10] | MIC [1, 11] | MIC [1, 12] | MIC [1, 13] | MIC [1, 14] | MIC [1, 15] | MIC [1, 16] | MIC [1, 17] | MIC [1, 18] | MIC ([1]; pools denoted "H", read-out: norfloxacin MICs) | nalidixic acid MICs [2]
COc1c(N2CCNC(C)C2)c(F)cc2c(=O)c(C(=O)O)cn(C3CC3)c12 (centres unmarked) [GAT, gatifloxacin] | 10 to 30 µg/mL (≈ 26.6 to 79.9 µM) | 10 to 30 µg/mL (≈ 26.6 to 79.9 µM) | 50 to 200 µg/mL (≈ 133 to 533 µM) | 10 to 30 µg/mL (≈ 26.6 to 79.9 µM) | 10 to 30 µg/mL (≈ 26.6 to 79.9 µM) | 8 to 30 µg/mL (≈ 21.3 to 79.9 µM) | 30 to 100 µg/mL (≈ 79.9 to 266 µM) | 10 to 20 µg/mL (≈ 26.6 to 53.3 µM) | 10 to 20 µg/mL (≈ 26.6 to 53.3 µM) | 10 µg/mL (≈ 26.6 µM) | 100 to 300 µg/mL (≈ 266 to 799 µM) | 20 µg/mL (≈ 53.3 µM) | 20 to 100 µg/mL (≈ 53.3 to 266 µM) | 10 to 50 µg/mL (≈ 26.6 to 133 µM) | 0.01 to 0.02 µg/mL (≈ 0.0266 to 0.0533 µM) | 0.01 to 0.09 µg/mL (≈ 0.0266 to 0.24 µM) | – | –
C[C@H]1COc2c(N3CCN(C)CC3)c(F)cc3c(=O)c(C(=O)O)cn1c23 [LVX, levofloxacin] | 10 to 200 µg/mL (≈ 27.7 to 553 µM) | 40 to 50 µg/mL (≈ 111 to 138 µM) | 100 µg/mL (≈ 277 µM) | 20 to 50 µg/mL (≈ 55.3 to 138 µM) | 20 to 50 µg/mL (≈ 55.3 to 138 µM) | 8 to 30 µg/mL (≈ 22.1 to 83 µM) | 50 to 100 µg/mL (≈ 138 to 277 µM) | 30 to 50 µg/mL (≈ 83 to 138 µM) | 30 to 100 µg/mL (≈ 83 to 277 µM) | 10 to 20 µg/mL (≈ 27.7 to 55.3 µM) | 50 to 200 µg/mL (≈ 138 to 553 µM) | 10 to 20 µg/mL (≈ 27.7 to 55.3 µM) | 30 to 100 µg/mL (≈ 83 to 277 µM) | 20 to 50 µg/mL (≈ 55.3 to 138 µM) | 0.02 to 0.07 µg/mL (≈ 0.0553 to 0.194 µM) | 0.03 to 0.17 µg/mL (≈ 0.083 to 0.47 µM) | – | –
CCn1cc(C(=O)O)c(=O)c2cc(F)c(N3CCNCC3)cc21 [NOR, norfloxacin] | 1000 µg/mL (≈ 3130 µM) | 400 to 1000 µg/mL (≈ 1250 to 3130 µM) | 400 to 1000 µg/mL (≈ 1250 to 3130 µM) | 200 to 700 µg/mL (≈ 626 to 2190 µM) | 200 to 700 µg/mL (≈ 626 to 2190 µM) | 50 to 200 µg/mL (≈ 157 to 626 µM) | 200 to 700 µg/mL (≈ 626 to 2190 µM) | 50 to 300 µg/mL (≈ 157 to 939 µM) | 200 to 400 µg/mL (≈ 626 to 1250 µM) | 50 to 200 µg/mL (≈ 157 to 626 µM) | 100 to 200 µg/mL (≈ 313 to 626 µM) | 100 to 200 µg/mL (≈ 313 to 626 µM) | 50 to 500 µg/mL (≈ 157 to 1570 µM) | 50 to 200 µg/mL (≈ 157 to 626 µM) | 0.03 to 0.09 µg/mL (≈ 0.0939 to 0.282 µM) | 0.04 to 0.34 µg/mL (≈ 0.125 to 1.06 µM) | > 1000 µg/mL | –
CCn1cc(C(=O)O)c(=O)c2ccc(C)nc21 [nalidixic acid] | – | – | – | – | – | – | – | – | – | – | – | – | – | – | – | – | – | lowered
